Laboratory results reported in patent publication US8008299B2, “Urotensin II receptor antagonists” (Janssen Pharmaceutica, N.V., priority 2007, dated 2011).
pIC50, pKi: −log10 of the molar value. Read-outs that look alike come from different tables or passages of the source.

How the values were obtained:
[1] = biological target: T1, Human UII (U-II receptor) in 6D9 human rhabdomyosarcoma cells (Homo sapiens, UniProt Q9UKP6); experiment: Human UII Calcium Mobilization Assay; assay type: cell-based; settings: 6D9 human rhabdomyosarcoma cells, FLIPR TETRA, average; read-out: Human UII Ca+ Mobilization Average IC50
T1 construct: 6D9: isolated by dilution subcloning of RMS13 cells, ATCC® Number: CRL-2061; host or cells: 6D9 human rhabdomyosarcoma cells (subclone of RMS13)
T1 sequence (Q9UKP6 1-389): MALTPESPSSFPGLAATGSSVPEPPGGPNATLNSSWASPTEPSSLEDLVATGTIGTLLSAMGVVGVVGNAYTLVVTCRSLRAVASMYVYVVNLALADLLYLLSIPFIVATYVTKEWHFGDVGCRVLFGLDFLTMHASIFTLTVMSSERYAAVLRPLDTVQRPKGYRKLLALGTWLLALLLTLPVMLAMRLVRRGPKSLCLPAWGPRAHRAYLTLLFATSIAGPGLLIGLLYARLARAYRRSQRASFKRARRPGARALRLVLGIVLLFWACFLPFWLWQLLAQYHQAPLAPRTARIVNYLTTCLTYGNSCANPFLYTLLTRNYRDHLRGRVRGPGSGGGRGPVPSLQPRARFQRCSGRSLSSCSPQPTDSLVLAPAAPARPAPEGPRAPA

[2] = biological target: T2, rat GPR14 (U-II receptor) (Rattus norvegicus, UniProt P49684); experiment: Rat UII Calcium Mobilization FLIPR Assay; assay type: cell-based; settings: CHO cells transfected with rat GPR14; antagonist activity after 5 min incubation vs agonist (Ac)-CFWK(2-NaI)C-NH2 at 1 nM
T2 construct: expressed in transfected cells
T2 sequence (P49684 1-386): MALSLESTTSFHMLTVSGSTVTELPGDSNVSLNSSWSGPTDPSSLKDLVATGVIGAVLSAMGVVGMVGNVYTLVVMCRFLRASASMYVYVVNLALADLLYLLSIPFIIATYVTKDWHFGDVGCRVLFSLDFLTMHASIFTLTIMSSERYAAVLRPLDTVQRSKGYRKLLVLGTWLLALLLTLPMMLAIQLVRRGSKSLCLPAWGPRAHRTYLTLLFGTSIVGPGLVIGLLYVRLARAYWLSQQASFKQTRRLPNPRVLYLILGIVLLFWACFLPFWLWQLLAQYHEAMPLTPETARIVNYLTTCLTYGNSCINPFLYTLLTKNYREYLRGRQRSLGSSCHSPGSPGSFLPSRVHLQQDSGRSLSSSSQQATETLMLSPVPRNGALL
Outline: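 Fluorescent calcium signals were recorded at room temperature (23° C) by FLIPR. Stable rat U-II receptor CHO lines had been dye-loaded for 1 h at 37° C in pH 7.4 HBSS containing 20 mM HEPES, 0.1% BSA and 2.5 mM probenecid.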

[3] = biological target: T3, UT receptors in HSMM (Human Skeletal Muscle Myoblasts) (Homo sapiens, UniProt Q9UKP6); experiment: Human Radioligand Binding Assay ((^125I)-U-II binding to intact HSMM)
T3 sequence (Q9UKP6 1-389): T1 sequence (Q9UKP6 1-389)

[4] = read-out: Human UII Average Binding Ki, intact HSMM, 0.150 nM (^125I)-U-II, 3 h, 25° C.

Structure (SMILES) | pIC50 [1] | pIC50 [2] | pKi [3] | pKi [3, 4]
CCN1CCN(c2cccc3c2CN([C@H](CCCNc2ncccn2)c2ccc(OC)c(OC)c2)C3=O)CC1 [Cpd 48, 2-[(1R)-1-(3,4-dimethoxy-phenyl)-4-(pyrimidin-2-ylamino)-butyl]-4-(4-ethyl-piperazin-1-yl)-2,3-dihydro-isoindol-1-one] | 6.30 | 7.21 | 7.32 | –
CCN1CCN(c2cccc3c2CN([C@H](CCCNS(=O)(=O)c2cnc(C)n2C)c2ccc(OC)c(OC)c2)C3=O)CC1 [Cpd 49, 2,3-dimethyl-3H-imidazole-4-sulfonic acid {(4R)-4-(3,4-dimethoxy-phenyl)-4-[4-(4-ethyl-piperazin-1-yl)-1-oxo-1,3-dihydro-isoindol-2-yl]-butyl}-amide] | 7.19 | 8.70 | 7.89 | –
CCN1CCN(c2cccc3c2CN([C@H](CCCOc2ccccc2)c2ccc(OC)c(OC)c2)C3=O)CC1 [Cpd 50, 2-[(1R)-1-(3,4-dimethoxy-phenyl)-4-phenoxy-butyl]-4-(4-ethyl-piperazin-1-yl)-2,3-dihydro-isoindol-1-one] | 6.32 | 8.15 | 7.64 | –
CCN1CCN(c2cccc3c2CN([C@H](CCCOCc2ccccc2F)c2ccc(OC)c(OC)c2)C3=O)CC1 [Cpd 51, 2-[(1R)-1-(3,4-dimethoxy-phenyl)-4-(2-fluoro-benzyloxy)-butyl]-4-(4-ethyl-piperazin-1-yl)-2,3-dihydro-isoindol-1-one] | < 5.00 | 5.59 | < 6.52 | –
CCN1CCN(c2cccc3c2CN([C@H](CCCNS(=O)(=O)c2cn(C)cn2)c2ccc(OC)c(OC)c2)C3=O)CC1 [Cpd 53, 1-methyl-1H-imidazole-4-sulfonic acid {(4R)-4-(3,4-dimethoxy-phenyl)-4-[4-(4-ethyl-piperazin-1-yl)-1-oxo-1,3-dihydro-isoindol-2-yl]-butyl}-amide] | 6.56 | 7.28 | 7.25 | –
CCN1CCN(c2cccc3c2CN([C@H](CCCNC(=O)c2ccncc2)c2ccc(OC)c(OC)c2)C3=O)CC1 [Cpd 54, N-{(4R)-4-(3,4-dimethoxy-phenyl)-4-[4-(4-ethyl-piperazin-1-yl)-1-oxo-1,3-dihydro-isoindol-2-yl]-butyl}-isonicotinamide] | 6.20 | 7.09 | 7.11 | –
CCN1CCN(c2cccc3c2CN([C@H](CCCNC(=O)c2nccn2C)c2ccc(OC)c(OC)c2)C3=O)CC1 [Cpd 56, 1-methyl-1H-imidazole-2-carboxylic acid {(4R)-4-(3,4-dimethoxy-phenyl)-4-[4-(4-ethyl-piperazin-1-yl)-1-oxo-1,3-dihydro-isoindol-2-yl]-butyl}-amide] | 6.16 | 7.10 | 6.90 | –
CCN1CCN(c2cccc3c2CN([C@H](CCCNC(=O)c2cn(C)cn2)c2ccc(OC)c(OC)c2)C3=O)CC1 [Cpd 57, 1-methyl-1H-imidazole-4-carboxylic acid {(4R)-4-(3,4-dimethoxy-phenyl)-4-[4-(4-ethyl-piperazin-1-yl)-1-oxo-1,3-dihydro-isoindol-2-yl]-butyl}-amide] | 6.04 | 6.61 | 7.31 | –
CCN1CCN(c2cccc3c2CN([C@H](CCCNS(N)(=O)=O)c2ccc(OC)c(OC)c2)C3=O)CC1 [Cpd 58, aminosulfonic acid {(4R)-4-(3,4-dimethoxy-phenyl)-4-[4-(4-ethyl-piperazin-1-yl)-1-oxo-1,3-dihydro-isoindol-2-yl]-butyl}-amide] | 6.35 | 7.09 | 6.96 | –
CCN1CCN(c2cccc3c2CN([C@H](CCCNC(=O)c2cncn2C)c2ccc(OC)c(OC)c2)C3=O)CC1 [Cpd 59, 3-methyl-3H-imidazole-4-carboxylic acid {(4R)-4-(3,4-dimethoxy-phenyl)-4-[4-(4-ethyl-piperazin-1-yl)-1-oxo-1,3-dihydro-isoindol-2-yl]-butyl}-amide] | 5.90 | 7.09 | < 6.52 | –
CCN1CCN(c2cccc3c2CN([C@H](CCCNC(=O)c2c(C)n[nH]c2C)c2ccc(OC)c(OC)c2)C3=O)CC1 [Cpd 60, 3,5-dimethyl-1H-pyrazole-4-carboxylic acid {(4R)-4-(3,4-dimethoxy-phenyl)-4-[4-(4-ethyl-piperazin-1-yl)-1-oxo-1,3-dihydro-isoindol-2-yl]-butyl}-amide] | 6.89 | 7.80 | – | 7.96
CCN1CCN(c2cccc3c2CN([C@H](CCCNC(=O)c2ccnnc2)c2ccc(OC)c(OC)c2)C3=O)CC1 [Cpd 61, pyridazine-4-carboxylic acid {(4R)-4-(3,4-dimethoxy-phenyl)-4-[4-(4-ethyl-piperazin-1-yl)-1-oxo-1,3-dihydro-isoindol-2-yl]-butyl}-amide] | 6.07 | 7.16 | 7.54 | –
CCN1CCN(c2cccc3c2CN([C@H](CCCN(Cc2ccncc2)Cc2ccncc2)c2ccc(OC)c(OC)c2)C3=O)CC1 [Cpd 63, 2-[(1R)-4-(bis-pyridin-4-ylmethyl-amino)-1-(3,4-dimethoxy-phenyl)-butyl]-4-(4-ethyl-piperazin-1-yl)-2,3-dihydro-isoindol-1-one] | 7.70 | 8.15 | 8.10 | –
CCN1CCN(c2cccc3c2CN([C@H](CCCNC(N)=O)c2ccc(OC)c(OC)c2)C3=O)CC1 [Cpd 64, {(4R)-4-(3,4-dimethoxy-phenyl)-4-[4-(4-ethyl-piperazin-1-yl)-1-oxo-1,3-dihydro-isoindol-2-yl]-butyl}-urea] | 5.44 | 6.84 | < 6.52 | –
COc1ccc([C@@H](CCCNS(=O)(=O)c2cccs2)N2Cc3c(cccc3N3CCN(C(C)C)CC3)C2=O)cc1OC [Cpd 65, thiophene-2-sulfonic acid {(4R)-4-(3,4-dimethoxy-phenyl)-4-[4-(4-isopropyl-piperazin-1-yl)-1-oxo-1,3-dihydro-isoindol-2-yl]-butyl}-amide] | 7.28 | 8.52 | – | 8.40
CCN1CCN(c2cccc3c2CN([C@H](CCCNC(=O)Nc2ccccc2)c2ccc(OC)c(OC)c2)C3=O)CC1 [Cpd 66, 1-{(4R)-4-(3,4-dimethoxy-phenyl)-4-[4-(4-ethyl-piperazin-1-yl)-1-oxo-1,3-dihydro-isoindol-2-yl]-butyl}-3-phenyl-urea] | 6.07 | 7.64 | 7.08 | –
CCN1CCN(c2cccc3c2CN([C@H](CCCNC(=O)C(F)(F)F)c2ccc(OC)c(OC)c2)C3=O)CC1 [Cpd 67, N-{(4R)-4-(3,4-dimethoxy-phenyl)-4-[4-(4-ethyl-piperazin-1-yl)-1-oxo-1,3-dihydro-isoindol-2-yl]-butyl}-2,2,2-trifluoro-acetamide] | 6.06 | 7.30 | 7.37 | –
CCN(CC)CCC[C@H](c1ccc(OC)c(OC)c1)N1Cc2c(cccc2N2CCN(CC)CC2)C1=O [Cpd 68, 2-[(1R)-4-diethylamino-1-(3,4-dimethoxy-phenyl)-butyl]-4-(4-ethyl-piperazin-1-yl)-2,3-dihydro-isoindol-1-one] | 5.69 | 6.75 | < 6.52 | –
CCNCCC[C@H](c1ccc(OC)c(OC)c1)N1Cc2c(cccc2N2CCN(CC)CC2)C1=O [Cpd 69, 2-[(1R)-1-(3,4-dimethoxy-phenyl)-4-ethylamino-butyl]-4-(4-ethyl-piperazin-1-yl)-2,3-dihydro-isoindol-1-one] | < 5.00 | 6.09 | 6.70 | –
CCN1CCN(c2cccc3c2CN([C@H](CCCNS(=O)(=O)N(C)C)c2ccc(OC)c(OC)c2)C3=O)CC1 [Cpd 70, dimethylaminosulfonic acid {(4R)-4-(3,4-dimethoxy-phenyl)-4-[4-(4-ethyl-piperazin-1-yl)-1-oxo-1,3-dihydro-isoindol-2-yl]-butyl}-amide] | 7.01 | 8.10 | 7.27 | –
CCN1CCN(c2cccc3c2CN([C@H](CCCNS(=O)(=O)O)c2ccc(OC)c(OC)c2)C3=O)CC1 [Cpd 71, {(4R)-4-(3,4-dimethoxy-phenyl)-4-[4-(4-ethyl-piperazin-1-yl)-1-oxo-1,3-dihydro-isoindol-2-yl]-butyl}-sulfamic acid] | 5.75 | 6.34 | < 6.52 | –
